Where “and” joins values, the source holds several entries; their conditions need not be identical. Equal entries are not always repeated.
Experiments:
[1] = metabolite analysis of plasma and urine by TLC; assay type: in vivo, Balb/c nude mice; details: PC3- or LNCaP-xenograft animals
Text: (§1) 7.2. Organ distribution and Metabolite analysis.
After sacrificing the animals, the organs were dissected and measured in a γ-counter. The obtained CPM’s were normalized to %ID/g (Table shown in main text). For the metabolite analysis, urine and plasma samples were pipetted onto a TLC plate and run in a solution of 10 % MeCN in H2O and read out in an Amersham Typhoon (GE).Additionally to […]
metabolite analysis of two article, the image quantification based on the standardized different animals bearing a uptake value (SUV ) was performed. The obtained data PC3- or a LNCaP-xenograft. meanBW While in Plasma, no are represented in the following Table S6. Here, we show the metabolite were formed, the […]
results obtained by image quantification of the 4 different conclusive. groups. Comparison of tumor uptake in PSMA-expressing
LNCaP xenografts of (1) [68Ga]PSMA-11 and (2) [18F]PSMA-MIC01 (the same animals). (3) the PSMA-negative PC3 xenograft. (4) Confirmation of binding specificity of radiotracer [18F]PSMA-MIC01, by blocking PSMA in LNCaP-xenografts prior to radiotracer injection] using the potent PSMA-inhibitor 2-PMPA.
(§2) In order to check for the significant differences, we also checked for the Cohen’s d, a measurement to determine the effect size. It is calculated on the following formula:
(§3) Cohen′sD = Mean1− Mean2 . […]
(1 picture or pasted object on this page, not shown here)

[2] = radiotracer stability in formulation, radio-HPLC; assay type: physicochemical; details: 10 % EtOH/PBS, 4 h
Description: Clinical translation requires higher amounts of radioactivity than those manually achievable, which are limited by radiation burden for the radiochemist. Therefore, the synthesis of [^18F]PSMA‐MIC01 was automated on a FlowSafe radiosynthesis module, a continuous‐flow microfluidics platform (see Supporting Information for details). [^18F]PSMA‐MIC01 was produced in an overall RCY of 21 % with an overall production time of 139 min (see Supporting Information for experimental details). The higher RCY can be explained by the use of the microfluidic set up for the [^18F]fluorination towards intermediate [^18F]9. Microfluidic systems have a higher surface‐to‐volume ratio which results in an increased heat transfer capacity compared to in‐batch syntheses.62 This enabled reduction of the effective reaction time of the [^18F]fluorination to 75 s with concomitant reduction of ^18F‐side‐products and increased the intermediary RCY of [^18F]9 to 42 % and overall RCY to 21 %. […] The measured lipophilicity (logD) in n‐octanol/PBS was −3.01±0.22 (see Supporting Information). […]
The stabilities of [18F]PSMA-MIC01 and [18F]PSMA-MIC02 were tested, to ensure the integrity of the tracer in solution. […] After purification and formulation into an injectable solution of 10 % EtOH in PBS, the radiotracer was analysed by HPLC again (B),which was repeated after 2 h (C) and 4 h (D). […]

PC3 (PSMA-) xenografts = test: ex vivo organ distribution, PC3 xenograft mice; assay type: in vivo, Balb/c nude mice; details: dissected after PET scan
Description: All groups were evaluated by visual assessment of the PET image and the percentage injected dose per gram (%ID g^−1).
The animal experiments were all performed according to the ethical guidelines and approved by the local animal welfare committee of the University of Groningen (IvD number 15166-06-001. All animals were caged separately in individually ventilated cages.
7-12 week old immune deficient Balb/c nude mice were inoculated with 200 µL of a 1:1 suspension of medium containing approximately 4 x10^6 LNCaP cells (PSMA positive cells) or 5 x 10^6 PC3 cells (PSMA-negative cells) in RPMI-1640, and Matrigel Basement Membrane Matrix High concentration. The cells were subcutaneously inoculated on the right shoulder.
After 3 to 5 weeks for LNCaP-xenografts, 2-3 weeks for PC3-xenografts or when a tumor size of 1cm3 was reached, the animals were transported to the PET imaging facility. […]
Animals were anesthetized at 5 % isoflurane and maintained under 2 % isoflurane enriched with O2. The dynamic PET scan was started within 5 min after tracer injection with an acquisition time of 90 min. The static scan was performed 60 min after tracer injection with an acquisition time of 30 min.
as §1
After sacrificing the animals, the organs were dissected and measured in a γ-counter. The obtained CPM’s were normalized to %ID/g (Table shown in main text). […]
as §2, §3

SMILES: O=C(O)CC[C@H](NC(=O)N[C@@H](CCCCNC(=O)c1ccc(-c2cn(CCOCCOCC[18F])nn2)cc1)C(=O)O)C(=O)O [[^18F]PSMA‐MIC01]
- metabolites in plasma [1]: no
- stability of the radiotracer [2]: No degradation products could be detected
- ex vivo uptake bone (PC3 (PSMA-) xenografts): 0.5±0.2 %ID g^−1
- ex vivo uptake brain (PC3 (PSMA-) xenografts): 0.2±0.1 %ID g^−1
- ex vivo uptake heart (PC3 (PSMA-) xenografts): 1.0±0.6 %ID g^−1
- ex vivo uptake kidney (PC3 (PSMA-) xenografts): 39.8±28.8 %ID g^−1
- ex vivo uptake large intestine (PC3 (PSMA-) xenografts): 1.4±0.5 %ID g^−1
- ex vivo uptake liver (PC3 (PSMA-) xenografts): 9.4±2.9 %ID g^−1
- ex vivo uptake lungs (PC3 (PSMA-) xenografts): 2.1±1.1 %ID g^−1
- ex vivo uptake muscles (PC3 (PSMA-) xenografts): 0.6±0.3 %ID g^−1
- ex vivo uptake pancreas (PC3 (PSMA-) xenografts): 0.8±0.3 %ID g^−1
- ex vivo uptake plasma (PC3 (PSMA-) xenografts): 6.0±3.5 %ID g^−1
- ex vivo uptake salivary glands (PC3 (PSMA-) xenografts): 1.1±0.6 %ID g^−1
- ex vivo uptake small intestine (PC3 (PSMA-) xenografts): 1.3±0.6 %ID g^−1
- ex vivo uptake spleen (PC3 (PSMA-) xenografts): 3.1±1.4 %ID g^−1
- ex vivo uptake stomach (PC3 (PSMA-) xenografts): 1.2±0.6 %ID g^−1
- ex vivo uptake tumor (PC3 (PSMA-) xenografts): 3.0±1.8 %ID g^−1 and 3.0±1.7 %ID g^−1
- ex vivo uptake urine (PC3 (PSMA-) xenografts): 184±260 %ID g^−1
- ex vivo uptake whole blood (PC3 (PSMA-) xenografts): 3.4±1.8 %ID g^−1
